Experimental data as given in PubChem BioAssay (NCI).
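Exposure lasted 48 hours, with cells grown in 96-well plates and compounds tested at five concentrations. At the GI50, growth is halved. Definition used: TGI = concentration required for complete inhibition of growth.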 Where a SMILES comes first, the peptide text is derived from it. [ ]: non-standard residue; d: D form. The star is where a group is joined. Lauroyl = CCCCCCCCCCCC(=O)*; Aib = CC(C)(N)C(=O)O; βAla = NCCC(=O)O

How the values were obtained:
Assay in all cases: NCI tumour cell line growth inhibition, 48 h
[1] = tested on: SK-MEL-5 melanoma
[2] = tested on: K-562 leukemia
[3] = tested on: LOX IMVI melanoma
[4] = tested on: A549 NSCLC
[5] = tested on: T-47D breast
[6] = tested on: SK-MEL-2 melanoma
[7] = tested on: UO-31 renal
[8] = tested on: A498 renal
[9] = tested on: UACC-257 melanoma
[10] = tested on: IGROV1 ovarian
[11] = tested on: RPMI-8226 leukemia
[12] = tested on: OVCAR-3 ovarian
[13] = tested on: CAKI-1 renal
[14] = tested on: SF-295 CNS
[15] = tested on: BT-549 breast
[16] = tested on: HCT-116 colon
[17] = tested on: SF-539 CNS
[18] = tested on: SK-OV-3 ovarian
[19] = tested on: U251 CNS
[20] = tested on: NCI-H460 lung
[21] = tested on: NCI-H226 lung
[22] = tested on: SF-268 CNS
[23] = tested on: KM12 colon
[24] = tested on: HOP-62 NSCLC
[25] = tested on: OVCAR-4 ovarian
[26] = tested on: HCC-2998 colon
[27] = tested on: EKVX NSCLC
[28] = tested on: MDA-MB-231 breast
[29] = tested on: SNB-75 CNS
[30] = tested on: NCI-H23 lung
[31] = tested on: COLO 205 colon
[32] = tested on: MALME-3M melanoma
[33] = tested on: TK-10 renal
[34] = tested on: SN12C renal
[35] = tested on: NCI/ADR-RES ovarian
[36] = tested on: SW-620 colon
[37] = tested on: HS 578T breast
[38] = tested on: CCRF-CEM leukemia
[39] = tested on: SR leukemia
[40] = tested on: SK-MEL-28 melanoma
[41] = tested on: MCF7 breast
[42] = tested on: HT29 colon
[43] = tested on: M14 melanoma
[44] = tested on: HOP-92 NSCLC
[45] = tested on: PC-3 prostate
[46] = tested on: 786-0 renal
[47] = tested on: OVCAR-8 ovarian
[48] = tested on: ACHN renal
[49] = tested on: HCT-15 colon
[50] = tested on: NCI-H522 lung
[51] = tested on: RXF 393 renal
[52] = tested on: DU-145 prostate
[53] = tested on: UACC-62 melanoma
[54] = tested on: MDA-MB-435
[55] = tested on: SNB-19 CNS
[56] = tested on: OVCAR-5 ovarian

## CCCCCCCCCCCC(=O)NC(C)(C)C(=O)N1CCCC1C(=O)NC(C)(C)C(=O)NC(C)(C)C(=O)N1CCCC1C(=O)NC(C)(C)C(=O)NC(C)(C)C(=O)N1CCCC1C(=O)NC(C)C(=O)NCCC(=O)NC(C)C(=O)NC(C)(C)C(=O)NC(C)(C)C(=O)NC(C)(C)C(=O)NCCC(=O)NC(C)(C)C(=O)NC(C)(C)C(=O)NC(C)(C)C(=O)NC(C)C(=O)NCCC(=O)O (configuration not stated) (Lauroyl-[Aib]P[Aib][Aib]P[Aib][Aib]PA[βAla]A[Aib][Aib][Aib][βAla][Aib][Aib][Aib]A[βAla]-OH; configuration not given here)
[1]
  GI50: 327 nM
  TGI: 652 nM
[2]
  GI50: 337 nM
  TGI: 822 nM
[3]
  GI50: 286 nM
  TGI: 535 nM
[4]
  GI50: 310 nM
  TGI: 635 nM
[5]
  GI50: 440 nM
  TGI: 1440 nM
[6]
  GI50: 345 nM
  TGI: 765 nM
[7]
  GI50: 669 nM
  TGI: 1700 nM
[8]
  GI50: 375 nM
  TGI: 860 nM
[9]
  GI50: 387 nM
  TGI: 1080 nM
[10]
  GI50: 377 nM
  TGI: 1170 nM
[11]
  GI50: 166 nM
  TGI: 561 nM
[12]
  GI50: 444 nM
  TGI: 1130 nM
[13]
  GI50: 279 nM
  TGI: 536 nM
[14]
  GI50: 349 nM
  TGI: 873 nM
[15]
  GI50: 151 nM
  TGI: 383 nM
[16]
  GI50: 300 nM
  TGI: 547 nM
[17]
  GI50: 298 nM
  TGI: 576 nM
[18]
  GI50: 325 nM
  TGI: 623 nM
[19]
  GI50: 254 nM
  TGI: 500 nM
[20]
  GI50: 310 nM
  TGI: 577 nM
[21]
  GI50: 435 nM
  TGI: 1230 nM
[22]
  GI50: 404 nM
  TGI: 1100 nM
[23]
  GI50: 478 nM
  TGI: 1320 nM
[24]
  GI50: 325 nM
  TGI: 683 nM
[25]
  GI50: 296 nM
  TGI: 545 nM
[26]
  GI50: 533 nM
  TGI: 1960 nM
[27]
  GI50: 349 nM
  TGI: 790 nM
[28]
  GI50: 344 nM
  TGI: 780 nM
[29]
  GI50: 238 nM
  TGI: 527 nM
[30]
  GI50: 303 nM
  TGI: 583 nM
[31]
  GI50: 344 nM
  TGI: 721 nM
[32]
  GI50: 346 nM
  TGI: 796 nM
[33]
  GI50: 388 nM
  TGI: 1180 nM
[34]
  GI50: 296 nM
  TGI: 672 nM
[35]
  GI50: 370 nM
  TGI: 833 nM
[36]
  GI50: 400 nM
  TGI: 986 nM
[37]
  GI50: 271 nM
  TGI: 711 nM
[38]
  GI50: 375 nM
  TGI: 818 nM
[39]
  GI50: 352 nM
  TGI: 884 nM
[40]
  GI50: 437 nM
  TGI: 1360 nM
[41]
  GI50: 368 nM
  TGI: 906 nM
[42]
  GI50: 480 nM
  TGI: 1350 nM
[43]
  GI50: 387 nM
  TGI: 1010 nM
[44]
  GI50: 238 nM
  TGI: 515 nM
[45]
  GI50: 319 nM
  TGI: 689 nM
[46]
  GI50: 280 nM
  TGI: 513 nM
[47]
  GI50: 357 nM
  TGI: 827 nM
[48]
  GI50: 341 nM
  TGI: 667 nM
[49]
  GI50: 322 nM
  TGI: 652 nM
[50]
  GI50: 307 nM
  TGI: 621 nM
[51]
  GI50: 291 nM
  TGI: 527 nM
[52]
  GI50: 441 nM
  TGI: 1110 nM
[53]
  GI50: 325 nM
  TGI: 724 nM
[54]
  GI50: 422 nM
  TGI: 1040 nM
[55]
  GI50: 423 nM
  TGI: 1210 nM
[56]
  GI50: 467 nM
  TGI: 1590 nM
